Measurements published in article PMC5698418 (Nature Communications, 2017).
Substitutions are numbered along the chain they refer to. Names and notes keep the numbering of the source. Starred links: 1 amine or outer side, 2 acyl side, 3 side chain; linkers in the order of their positions; H or OH if unused. Positions of bridges follow the written chain, without caps; N, C: chain ends. Non-standard residues stand in square brackets, D forms with d. Residues, ends and D or L forms follow the SMILES beside them. Chains are numbered I, II in the order given. Actinocin(9to1) = Cc1c2oc3c(C)ccc(C(=O)[*:1])c3nc-2c(C(=O)[*:2])c(N)c1=O; NMeV = CN[C@H](C(=O)O)C(C)C; Sar = CNCC(=O)O

How the values were obtained:
[1] = test system: nuclear Arc in primary cortical neurons; assay: Low-throughput nuclear Arc immunofluorescence assay (coverslips, Map2-positive cells); assay type: cell-based, mouse; details: co-treated with BDNF 6 h; k252a 100 nM, ActD 2 ng ml−1, CHX 50 µg ml−1, U0126 10 µM
Source text: Next, using fluorescent immunocytochemistry we assessed to what extent the observed induction of total Arc protein expression measured by western blotting corresponded to an accumulation of Arc in the nucleus of our cultured neurons. We chose to focus on nuclear Arc at this point based on the assumption that it would provide a robust and easily tractable phenotype for testing a large set of compounds with the help of a quantitative, single-cell level, high-content, image-based screen. […] On the other hand, many but not all of the neurons in cultures that were treated with BDNF for 6 h had high levels of Arc in their nuclei (Fig. 2b). […] Finally, to further evaluate the sensitivity of our method to quantify nuclear Arc expression, we tested four pharmacological inhibitors predicted to prevent BDNF-induced Arc expression. […] These experimental results with known mechanism of action compounds critically guided the design and interpretation of the chemogenomic screen performed next.
Indirect immunofluorescence detection of antigens was carried out using cortical neurons cultured on poly-L-lysine/laminin-coated coverslips in 24-well plates at a density of 0.1 × 10^7 per well. After experimental treatment, cells were washed twice with PBS and fixed for 30 min at room temperature with 4% paraformaldehyde in PBS. After fixation, cells were washed twice with PBS, permeabilized with PBST (PBS + 0.25% Triton X-100) for 20 min, blocked in blocking solution (PBS + 5% normal goat serum) for another 30 min, and finally incubated overnight at 4 °C with the first primary antibody in blocking solution. The next day, coverslips were extensively washed with PBS and incubated for 2 h at room temperature in the appropriate fluorophore-conjugated secondary antibody solution (Alexa 488- or Alexa 594-conjugated secondary antibody (Molecular Probes, Invitrogen) in blocking solution). After washing with PBS, the coverslips were incubated again overnight in primary antibody solution for the second antigen, and the procedure for conjugation of the fluorophore-conjugated secondary antibody was repeated as above. Finally, cell nuclei were counterstained with 4′,6-diamidino-2-phenylindole (DAPI), and coverslips were mounted on glass slides with ProLong Antifade reagent (Invitrogen).
Cells cultured on coverslips from three independent biological replicates were imaged with an IN Cell Analyzer 6000 high-performance laser-based confocal imaging system and a ×40 objective (GE Healthcare Life Sciences, Marlborough, MA). Image preparation, assembly, and analysis were performed with ImageJ (NIH) and Photoshop CS. Change in contrast and evenness of the illumination was applied equally to all images presented in the study. The following procedure was used for low-throughput measurements. First, original raw tiff files were opened in ImageJ, the nucleus of all neurons in the image was located based on Map2 immunostaining, then average pixel intensity corresponding to Arc immunofluorescence was measured for a 30-pixel spot positioned at the center of the nuclear compartment. Second, for each measure of Arc nuclear immunofluorescence pixel intensity, a measure of background pixel intensity from the same image channel was acquired and subsequently subtracted from the Arc nuclear immunofluorescence pixel intensity value. Finally, Arc immunofluorescence signal from untreated samples was used to establish an objective threshold (two standard deviations above the nuclear Arc immunofluorescence signal averaged from a representative population of untreated neurons) and allow comparison of nuclear Arc expression between different experimental conditions.

[2] = test system: primary cortical neurons; details: screen at 16.7 µM, excluded from data analysis
Procedure: All 319 compounds were initially tested at a final concentration of 16.7 µM with three biological replicates.
(§1) Screening of compounds in the chemogenomic library was carried out using DIV13 primary forebrain cortical neurons cultured on poly-L-lysine/laminin-coated 96-well plates (Ibidi USA, Madison, WI). Cells were seeded at a density of 30,000 cells per well and treated with the compound library and BDNF according to the experimental design presented in Fig. 3a. After experimental treatment, cells were processed for Arc and acetyl-H3K9 immunocytochemistry according to the protocol described above. Both antigens (Arc and acetyl-H3K9) were imaged using an IN Cell Analyzer 6000 imaging system and a ×40 objective. […] High-throughput quantification of nuclear Arc immunofluorescence signal was performed in a similar fashion than the low-throughput procedure described above but with the exception that acetyl-H3K9 was used as a nuclear mask to guide the automated quantification of nuclear Arc immunofluorescence signal.

[3] = test system: BDNF-induced nuclear Arc expression in primary cortical neurons; assay: Chemogenomic screen: high-content image-based assay of BDNF-induced nuclear Arc expression (96-well); assay type: cell-based, mouse; details: 16.7 µM, BDNF
How it was run: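 DIV13 mouse primary cortical neurons (30,000 cells/well) are treated with compound at 16.7 µM and BDNF, in three biological replicates. Arc and acetyl-H3K9 are immunostained and imaged at ×40, and nuclear Arc signal is quantified automatically using acetyl-H3K9 as the nuclear mask.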

[4] = test system: acetyl-H3K9; assay: Acetyl-H3K9 immunofluorescence in neuronal nuclei (multiplexed in screen); assay type: cell-based, mouse; details: screen, 16.7 µM
Procedure: To increase the throughput of our pharmacological screening for modulators of Arc, the above mentioned assay was adapted to cultures of mouse primary cortical neurons in 96-well plates.
as §1

[5] = test system: Neuro2a cells; details: for Fold-change to WT: protein half-life in Neuro2a
Source text: Next, we aimed to determine whether the K24, K33, K55, and K70 residues participate in Arc protein turnover. […] We also included K70 in this experiment because of its position in the coiled-coil and nuclear retention domains of Arc (Fig. 5e) as well as its relative proximity to K55. For this test, we used site-directed mutagenesis to generate plasmids that would allow overexpression of an acetyl-mimic/unmodifiable mutant Arc-Myc-FLAG protein (lysine (K) to glutamine (Q) mutant) for each of these four sites. After transfecting sets of Neuro2a cells with these different constructs, we inhibited translation with CHX and monitored overexpressed protein levels for up to 6 h after.
Lysates were collected at the indicated time points and Arc-Myc-FLAG protein level analyzed in every sample by western blotting with an anti-FLAG antibody. Representative western blots are presented on top and quantification of data normalized to corresponding β-actin and presented as percentage of Arc-Myc-FLAG level (±SEM) at the initial time point after CHX application (t = 0). Curve represents exponential decay fit. b Estimate of protein half-life Arc for WT Arc-Myc-FLAG and each acetyl-mimic mutant is presented in table. c WT and acetyl-mutant Arc-Myc-FLAG polyubiquitination was determined in lysates from overexpressing Neuro2a cells. Lysates were immunoprecipitated with anti-FLAG and western blotted with anti-Ub or anti-Arc as indicated.
Neuro2A cells were cultured in DMEM (supplemented with 10% fetal bovine serum (Gemini-Bio-Products, West Sacramento, CA), penicillin (50 units ml^−1), and streptomycin (50 µg ml^−1)) and transfected overnight using Lipofectamine 2000 (Invitrogen) according to the manufacturer’s protocol. The Neuro2A cell line was generously shared by Dr. Grace Gill.
The pCMV6-Arc-Myc-DDK (FLAG) plasmid (MR206218) was purchased from OriGene Biotechnologies (Rockville, MD). The Arc-Myc-FLAG K24Q, K24R, K33Q, K55Q, K70Q, and K70R plasmids were generated with the help of the Q5 Site-Directed Mutagenesis Kit from New England BioLabs (Ipswich, MA) using WT pCMV6-Arc-Myc-FLAG as template. All constructs were verified by DNA sequencing.

Cc1c2oc3c(C)ccc(C(=O)N[C@@H]4C(=O)N[C@H](C(C)C)C(=O)N5CCC[C@H]5C(=O)N(C)CC(=O)N(C)[C@@H](C(C)C)C(=O)O[C@@H]4C)c3nc-2c(C(=O)N[C@@H]2C(=O)N[C@H](C(C)C)C(=O)N3CCC[C@H]3C(=O)N(C)CC(=O)N(C)[C@@H](C(C)C)C(=O)O[C@@H]2C)c(N)c1=O [actinomycin D] (I: T[dV]P[Sar][NMeV] / II: T[dV]P[Sar][NMeV]; ester I:1-I:C, II:1-II:C; linker I:N-II:N via Actinocin(9to1))
effect on BDNF-induced increase of nuclear Arc [1]: effectively prevented the increase of nuclear Arc

CNCC[C@H](Oc1cccc2ccccc12)c1cccs1 [Duloxetine]
Reason for exclusion [2]: Cell death - toxicity

COc1cc2c(NC3CCN(C(C)C)CC3)nc(C3CCCCC3)nc2cc1OCCCN1CCCC1 [UNC 0638]
Reason for exclusion [2]: Cell death - toxicity

C[C@@H]1C[C@@H]([C@H](O)CC2CC(=O)NC(=O)C2)C(=O)[C@@H](C)C1 [cycloheximide]
effect on BDNF-induced increase of nuclear Arc [1]: effectively prevented the increase of nuclear Arc

Nc1ccccc1NC(=O)c1ccc(CNC(=O)OCc2cccnc2)cc1 [entinostat, reference compound]
occurrence of neuronal nuclei with above threshold nuclear Arc immunofluorescence signal, factor in relation to control (DMSO plus BDNF) [3]: ≥ 1.5 | impact on acetyl-H3K9 immunofluorescence (Z-score) [4]: strong impact

Oc1cc(O)c2c(c1)O[C@H](c1cc(O)c(O)c(O)c1)[C@H](O)C2 [Epigallocatechin, Epigallocatechol, Epigallocatechin]
Reason for exclusion [2]: Cell death - toxicity

COC(=O)[C@@]1(O)C[C@H]2O[C@]1(C)n1c3ccccc3c3c4c(c5c6ccccc6n2c5c31)C(=O)NC4 [K252a]
effect on BDNF-induced increase of nuclear Arc [1]: effectively prevented the increase of nuclear Arc

CC(C)COc1ccc(CNC(=O)N(Cc2ccc(F)cc2)C2CCN(C)CC2)cc1 [Pimavanserin (ACP-103), Pimavanserin]
Reason for exclusion [2]: Cell death - toxicity

C[C@@H](NC(=O)C(=O)c1c[nH]c2ccc([N+](=O)[O-])cc12)c1ccccc1 [TCS 1205]
Reason for exclusion [2]: Cell death - toxicity

CCCCN(CC)c1nc(C)nc2c1c(C)c(C)n2-c1c(C)cc(C)cc1C.Cl [Antalarmin hydrochloride]
Reason for exclusion [2]: Cell death - toxicity

B1: K33Q: acetyl-mimic/unmodifiable mutant Arc-Myc-FLAG, lysine 33 to glutamine (protein, UniProt Q9WV31 1-396, looked up, variant K33Q)
Activity-regulated …: MELDHMTTGGLHAYPAPRGGPAAKPNVILQIGQCRAEMLEHVRRTHRHLLTEVSKQVERELKGLHRSVGKLENNLDGYVPTGDSQRWKKSIKACLCRCQETIANLERWVKREMHVWREVFYRLERWADRLESMGGKYPVGSEPARHTVSVGVGGPEPYCQEADGYDYTVSPYAITPPPAAGELPEQESVEAQQYQSWGPGEDGQPSPGVDTQIFEDPREFLSHLEEYLRQVGGSEEYWLSQIQNHMNGPAKKWWEFKQGSVKNWVEFKKEFLQYSEGTLSREAIQRELELPQKQGEPLDQFLWRKRDLYQTLYVDAEEEEIIQYVVGTLQPKLKRFLRHPLPKTLEQLIQRGMEVQDGLEQAAEPSGTPLPTEDETEALTPALTSESVASDRTQPE
modifications: Myc-FLAG tag
notes: acetyl-mimic/unmodifiable mutant Arc-Myc-FLAG, lysine 33 to glutamine
Estimated t½ [5]: 2.63 h | Fold-change to WT [5]: −1.05

B2: K55Q: acetyl-mimic/unmodifiable mutant Arc-Myc-FLAG, lysine 55 to glutamine (protein, UniProt Q9WV31 1-396, looked up, variant K55Q)
Activity-regulated …: B1 Activity-regulated … with Q33K, K55Q
modifications: Myc-FLAG tag
notes: acetyl-mimic/unmodifiable mutant Arc-Myc-FLAG, lysine 55 to glutamine
Estimated t½ [5]: 2.40 h | Fold-change to WT [5]: −1.15
